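Assay format: 96-well plates, 48-hour exposure. TGI: total growth inhibition.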 Where a SMILES comes first, the peptide text is derived from it. [ ]: non-standard residue; d: D form. The star is where a group is joined. NMeV = CN[C@H](C(=O)O)C(C)C; X29 = COc1ccc(CN*)c(OC)c1; Octanoyl = CCCCCCCC(=O)*; dNMeA = CN[C@H](C)C(=O)O
Key:
Assay in all cases: growth of human tumour cells (NCI), 48 h
786-0 renal = test system: 786-0 renal
M14 melanoma = test system: M14 melanoma
U251 CNS = test system: U251 CNS
SR leukemia = test system: SR leukemia
SW-620 colon = test system: SW-620 colon
RPMI-8226 leukemia = test system: RPMI-8226 leukemia
HCT-15 colon = test system: HCT-15 colon
HOP-92 NSCLC = test system: HOP-92 NSCLC
A498 renal = test system: A498 renal
TK-10 renal = test system: TK-10 renal
HCT-116 colon = test system: HCT-116 colon
DU-145 prostate = test system: DU-145 prostate
SNB-19 CNS = test system: SNB-19 CNS
UACC-62 melanoma = test system: UACC-62 melanoma
A549 NSCLC = test system: A549 NSCLC
UO-31 renal = test system: UO-31 renal
NCI/ADR-RES ovarian = test system: NCI/ADR-RES ovarian
SN12C renal = test system: SN12C renal
MALME-3M melanoma = test system: MALME-3M melanoma

Structure (SMILES)	TGI (786-0 renal) [µM]	TGI (M14 melanoma) [µM]	TGI (U251 CNS) [µM]	TGI (SR leukemia) [µM]	TGI (SW-620 colon) [µM]	TGI (RPMI-8226 leukemia) [µM]	TGI (HCT-15 colon) [µM]	TGI (HOP-92 NSCLC) [µM]	TGI (A498 renal) [µM]	TGI (TK-10 renal) [µM]	TGI (HCT-116 colon) [µM]	TGI (DU-145 prostate) [µM]	TGI (SNB-19 CNS) [µM]	TGI (UACC-62 melanoma) [µM]	TGI (A549 NSCLC) [µM]	TGI (UO-31 renal) [µM]	TGI (NCI/ADR-RES ovarian) [µM]	TGI (SN12C renal) [µM]	TGI (MALME-3M melanoma) [µM]
C=C(Br)CNC(=O)Nc1ccc(Cl)c(Cl)c1	36	77.5	66	62.9	> 100	50.7	> 100	41.2	27.3	62.4	32.7	89.5	73.5	49	66	24.8	43.6	82.7	48.6
CC(=O)c1ccc2c(c1)CC1(C2)Cc2cc3c(cc2C1=O)CCC3 (centres undefined)	63.1	28.9	> 100	16.7	> 100	35.2	95.9	65.5	51.7	71.3	44	61.9	> 100		59.5	63.5	39.4	57.3	39.3
C[C@]12CC[C@@H]3c4cc(OCC(F)(F)F)c(O)cc4CC[C@H]3[C@@H]1CC[C@@H]2O	18.1	16.8	18.3	2.47	9.03	23.1	15.2	21.8	20.7	40.4	16.7	29.4	18.1	17.3	20.6	22.3	36.8	15.5	19
CCOC(=O)C1C(c2ccc3c(c2)OCO3)c2c([nH][nH]c2=O)CC1(C)O (centres undefined)	> 100	> 100	> 100	> 100	> 100	> 100	> 100	> 100	> 100	> 100	> 100	> 100	> 100	> 100	> 100	> 100	> 100	> 100	> 100
CN(C)c1ccc(C(Cc2ccccc2)C2NC(=S)NC2=O)cc1 (centres undefined)	> 100	> 100	> 100	> 100	> 100	> 100	> 100	> 100	> 100	> 100	> 100	> 100	> 100	> 100	> 100	> 100	> 100	> 100	> 100
COc1cc2c3c(c1)CCCN3CCC2	> 10	> 10	> 10	> 10	> 10	> 10	> 10	> 10	> 10	> 10	> 10	> 10	> 10	> 10	> 10	> 10	> 10	> 10	> 10
CNC(=O)C1(N)c2ccccc2C=Cc2ccccc21	> 100	> 100	> 100	> 100	> 100	> 100	> 100	> 100	> 100	> 100	> 100	> 100	> 100	> 100	> 100	> 100	> 100	> 100	> 100
COc1cc(/C=C/c2nc(NC(=S)Nc3ccccc3)nnc2C)cc(OC)c1OC	> 100	> 100	> 100	> 100	> 100	67.8	37.1	> 100	82.4	> 100	86	> 100	> 100	51.1	> 100	67.7	> 100	> 100	> 100
CC1=NN(C(=O)c2ccncc2)C(=O)C1	> 100	> 100	> 100	> 100	> 100		> 100	> 100	> 100	> 100	> 100	> 100	> 100	> 100	> 100	> 100	> 100	> 100	> 100
CCN1C(=O)c2cc(OC)c(OC)cc2C(=O)C12OC(=O)c1cc3c(cc12)OCO3 (centres undefined)	53.7	> 100	> 100	> 100	> 100	> 100	> 100	> 100	> 100	> 100	> 100	88.4	> 100	> 100	> 100	> 100	> 100	> 100	> 100
CCCCCCCC(=O)N[C@H](C(=O)N[C@H](C(=O)N(C)[C@H](C(=O)N1CCC[C@H]1C(=O)N(C)[C@H](C)C(=O)NCc1ccc(OC)cc1OC)C(C)C)C(C)C)C(C)C (Octanoyl-VV[NMeV]P[dNMeA]-X29)	> 100	> 68.1	> 85.5	> 65.6	> 100	> 26.3	> 100	36.7	12.2	> 100	> 50.1	> 100	> 100	23.7	99	> 100	> 100	> 100	24.3
CC1(/C=C/CCSc2ccccc2)CC(=O)C2CC1C2(C)C (centres undefined)	> 54.6	> 100	> 83.7	16.9	> 100	18.8	> 96	> 75.4	> 88.3	> 70.1	> 100	> 100	> 100	> 60	> 100	43.5	> 61.8	45.6	> 69.7
O=C1OCC2OC(=O)c3cc(O)c(O)c(O)c3-c3c(O)c(O)c(O)c4c3C(=O)OC(C2OC(=O)c2cc(O)c(O)c(O)c2-c2c1cc(O)c(O)c2O)C1OC(=O)c2c-4c(O)c(O)c(O)c2[C@@H]1C(O)C(O)C(O)C(O)CO (some centres undefined)	34.7	39.4	48.7	> 100	44.5	73.8	37.7	45.8	> 100		31.3	47.5	> 100	36.7	43.7	33.8	66.1	32.6	38.9
CSc1nc2c(c(=O)[nH]1)N=C(c1ccc([N+](=O)[O-])cc1)CC(c1ccccc1)N2 (centres undefined)	> 100	> 100	> 100	> 100	91.7	57.5		> 100	> 100		47.1	> 100	> 100	> 100	> 100	> 100	> 100	> 100	> 100
C/C(=N\Nc1ccc([N+](=O)[O-])cc1[N+](=O)[O-])c1sc(-n2nc(-c3ccccc3)cc2-c2ccccc2)nc1C	> 100	> 100	> 100	46.8	> 100	41.4	> 100	77.4	92.3	> 100	> 100	> 100	> 100	> 100		> 100	69.8	> 100	> 100
C=CCN1C(=O)/C(=C/c2cccs2)N=C1SC/C=C/C	> 100	> 100	> 100	45.8	> 100	40.6	> 100	> 100	98.8	> 100	> 100	> 100	> 100	> 100	> 100	> 100	> 100	86.6	96.6
O=C(CCCN1CCC2(CC1)CC(c1ccccc1)OC2=O)c1ccc(F)cc1 (centres undefined)	67.5	30.9	> 100	40.1	> 100	51.3	> 100	76.9	74.5	> 100	> 100	> 100	> 100	61.9	> 100	> 100	> 100	> 100	44
Cc1ccc(NC(Nc2ccc(C)cc2C)=C(/C=C(\Cl)[N+](=O)[O-])[N+](=O)[O-])c(C)c1	8.95	5.69	23.6	4.13	4.02	4.36	11.5	3.99	32.4	13.2	3.14	33.2	26	10	35	19.2	48.8	14.4	7.13
COC(=O)[C@H](CCSC)NC(=O)N[C@H](C)c1ccccc1	> 100	> 100	> 100	> 100	> 100	> 100	> 100	> 100	> 100	> 100	> 100	> 100	> 100	> 100	> 100	> 100	> 100	> 100	> 100
O=C1CCCN1C(=O)CS(=O)(=O)c1ccccc1	> 100	> 100	> 100	> 100	> 100	> 100	> 100	> 100	> 100	> 100	> 100	> 100	> 100	> 100	> 100	> 100	> 100	> 100	> 100
CCOC(=O)/C(C=Nc1c(C)n(C)n(-c2ccccc2)c1=O)=C(/C)O	> 100	> 100	> 100	> 100	> 100	> 100	> 100	> 100	> 100	> 100	> 100	> 100		> 100	> 100	> 100	> 100	> 100	> 100
COc1ccc(C(=O)/C=C/c2ccc(O)c(O)c2)c(OC)c1	44.3	19	16.6	6.54	> 63.8	15.8	24.3	> 100	21.2	20.2	16.1	15.7	19.4	14.4	97.3	41.6	> 61.2	13.2	21.8
NC(N)=NCCCC(NC(=O)c1cccc2c(=O)c3ccccc3[nH]c12)C(=O)O (centres undefined)	> 100	> 100	> 100	> 100	> 100	> 100	> 100	> 100	> 100	> 100	> 100	> 100	> 100	> 100	> 100	> 100	> 100	> 100	> 100
CCN(CC)CC1CCCCN1CC(=O)N1c2ccccc2C(=O)Nc2cccnc21 (centres undefined)	> 100	> 100	> 100	58.1	> 100	74.2	> 100	> 100	> 100	> 100	37.2	> 100	> 100	> 100	35.4	4.96	67.5	> 100	> 100
